Assay: Free radicals generated inside a formulation containing perfume after UV irradiation (ESR, spin marker PCA)
Type: physicochemical
Settings: 0.1% (w/w) perfume in formulation, diluted 1:10 in water, 0.01 mM PCA; UVB 23,5 W/m^2, UVA 180 W/m^2
Method: To measure the free radicals generation inside a formulation after UV irradiation, the concentration of a photostable spin marker added to the tested samples is followed by Electron Spin Resonance (ESR) spectroscopy before and after UV irradiation of the tested samples. The photostable spin marker will promptly react with the free radical generated in the formulation after UV irradiation.
0.1% (w/w) of the perfume to be tested is incorporated into the formulation, the formulation is then diluted in distillated water (1:10 dilution factor) and a water solution of the spin marker PCA (2,2,5,5,-tetramethyl pyrrolidine N-oxyl) is added to obtain a spin marker concentration of 0.01 mM. […] The sample is inserted in a capillary quartz tube to perform ESR measurement before and after 20 minutes of UV irradiation. The irradiances as integrated value over the spectral ranges of the solar simulator can exemplarily be E=23,5W/m^2 for UVB and 180W/m^2 for UVA.
The percentage of UV-induced free radicals inside the formulation containing the perfume to be tested serves as indicator to the sensitivity of said perfume.
The Electron Spin Resonance (ESR) measurements were performed with a high sensitive X-band bench top Electron Spin Resonance Spectrometer MiniScope MS300, supplied from Magnettech GmbH Berlin, Germany.
To measure the free radicals generation inside the formulation after UV irradiation, the concentration of a photostable spin marker added to the tested samples was followed by
Electron Spin Resonance (ESR) spectroscopy before and after UV irradiation of the tested samples. The photostable spin marker promptly reacted with the free radical generated in the formulation after UV irradiation.
0.1% (w/w) of the perfume to be tested (compare to Table 1) was incorporated into the formulation. The formulation was then diluted in distillated water (1:10 dilution factor) and a water solution of the spin marker PCA (2,2,5,5,-tetramethyl pyrrolidine N-oxyl) was added to obtain a spin marker concentration of 0.01 mM. Knowing the concentration of the spin trap PCA within the formulation, the amount of reduced PCA was calculated. The sample was inserted in a capillary quartz tube to perform ESR measurement before and after 20 minutes of UV irradiation. The irradiances as integrated value over the spectral ranges of the solar simulator were E=23,5 W/m^2 for UVB and 180 W/m^2 for UVA.

Structure (SMILES) | % free radicals after 20 min UV irradiation [%]
CC(CC=O)CCCC(C)(C)O (stereo not shown) [Hydroxycitronellal] | 3.7
CC(C)=CCCC(C)CCO (stereo not shown) [Citronellol, 3,7-dimethyloct-6-en-1-ol] | 6.6
OCc1ccccc1 [Benzyl Alcohol] | 4.4
COc1cc(C=O)ccc1O [Vanillin, 4-hydroxy-3-methoxybenzaldehyde] | 85.9
O=c1ccc2ccccc2o1 [Coumarin, 2H-chromen-2-one] | 11.5
CC(C)=CCCC(C)=CC=O [Citral, 3,7-dimethylocta-2,6-dienal] | 16.5
O=C(OCc1ccccc1)c1ccccc1O [Benzyl Salicylate, benzyl 2-hydroxybenzoate] | 17.5

— patent US20230121157A1, “ANTI-AGING CARE COMPOSITION COMPRISING PERFUMES” (BASF SE, priority 2020, published 2023)
